Source: US5646128A, “Methods for treating adenosine kinase related conditions” (priority 1994, dated 1997)
“Also recorded” adds a separate entry of the source. Where two headings read alike, the source gives them in different places.

What was measured:
heart = conditions: in vivo; cited from earlier work
[1] = test system: tumor necrosis factor alpha; conditions: cited from earlier work
[2] = test system: dog hearts subjected to ischemia and reperfusion; conditions: in vivo; cited from earlier work
[3] = mouse, in vivo; cited from earlier work
[4] = test system: perfusate adenosine, isolated rat hearts; conditions: normoxic, hypoxic, anoxic or ischemic conditions; alone; cited from earlier work
[5] = cited from earlier work
[6] = test system: adenosine uptake, rat brain slices; conditions: cited from earlier work
[7] = test system: adenosine uptake, guinea pig brain slices; conditions: cited from earlier work
[8] = Oral bioavailability (statement); type: in vivo; conditions: pro-drug of GP-1-515
[9] = test system: plasma leakage in rat skin; assay: Suppression of vascular (plasma) leakage in rat skin, Evans' Blue; type: in vivo, Male SA rats; conditions: for inhibition at 5 mg/kg: Rattus norvegicus, po, 5 mg/kg p.o. 1 hr prior
Experimental: Leakage of plasma into inflamed skin was measured using Evans' Blue (Sigma Chemical Co., St. Louis, Mo.), which binds irreversibly to albumin. Evans' Blue and bovine serum albumin (Sigma) were mixed (20 and 40 mg/mL PBS, respectively) and incubated for 15 min at room temperature in order to form a conjugate. The mixture was then filtered through a 0.45 μm pore syringe filter and immediately used. […] The rats were then briefly anesthetized with halothane and dorsal skin injection sites (up to 4/rat) were stamped with a 12 mm test tube inked with a felt pad. Every site received 100 μl of an inflammatory agent or PBS injected intradermally into the middle of the circular mark. Inflammatory agents included carrageenan (1%) and histamine (10^-3 M) (Sigma). Rats were then returned to their cages. Two hrs later, animals were again anesthetized and 0.5 mL blood was obtained through orbital plexus bleed. Following sacrifice of the rats, the injection sites were excised along the marked lines, and subcutaneous muscle and fat layers were removed from the skin biopsies. Each skin biopsy was weighed and cut in four, and its Evans' Blue content was extracted overnight by incubation in 1 mL N,N-dimethylformamide (Aldrich, Milwaukee, Wis.). The absorbance at 650 nm of plasma samples and skin extracts was read in a plate reader, and the plasma content of each skin piece was calculated and expressed as μl plasma/g tissue.

E. coli LPS endotoxemia [10] = assay: Prophylactic treatment for endotoxemia in mice; type: in vivo, Balb/C mice; conditions: 5 mg/kg oral, 6 hours before 700 ug LPS i.v.
Experimental: As shown in Example E, intravenous treatment with an adenosine kinase inhibitor improves survival of mice if administered immediately after intravenous injection with LPS. In the following experiments, it was shown that an adenosine kinase inhibitor (GP-1-515) protects animals against endotoxemia if administered prophylactically. In these experiments, 25-30 gram male Balb/C mice received oral GP-1-515 (5 mg/kg in water) or vehicle by gavage. Six hours later, the animals received an intravenous injection of 700 ug of E. coli LPS (Sigma Chemical Co.). In an experiment involving 10 animals per group, 50% of mice in the adenosine kinase inhibitor-treated group survived for 2 days, while none of animals in the vehicle treated group survived for that time period (data not shown).

E. coli LPS endotoxemia [11] = assay: Survival in endotoxemia (E. coli LPS) in mice; type: in vivo, Balb/C mice; conditions: i.v. immediately after 900 ug LPS i.v.; p=0.015
Excerpt: An adenosine kinase inhibitor (GP-1-515) was used to increase endogenous adenosine production in vivo.

bacterial translocation = assay: Burn model, bacterial translocation to mesenteric lymph nodes; type: in vivo, Female CF-1 mice
Experimental: Female CF-1, non-Swiss, non-albino mice (age 8-12 weeks) (Charles River Laboratory, Wilmington, Mass.) were anesthetized with a 1-2 minute exposure to methoxyflurane (Abbott Labs, Chicago, Ill.). The shaved dorsum was burned by a 6-second exposure to steam using a 3.5×5.5 cm template to produce a 32% total body surface area full thickness burn. Animals were resuscitated with 1 mL of normal saline i.p., followed by 0.1 mg/kg i.p./injection of GP-1-515 or an equal amount of vehicle. Animals also received an i.p. injection of morphine sulfate (15 mg/kg). The animals were administered a second injection of GP-1-515 (0.1 mg/kg) or vehicle i.p. 6 hours after the burn. Animals were fasted for 4 hours before the burn and for 24 hours thereafter. After 48 hours, the animals were sacrificed by cervical dislocation and the abdomen was opened using aseptic techniques. Mesenteric lymph nodes were harvested and weighed in sterile bags, homogenized in Trypticate Soy Broth (BBL, Becton Dickinson Microbiology System, Cockeysville, Md.). Ser. dilutions of the homogenate were plated on […] plates (BBL, Becton Dickinson) at 37° C. and the presence or absence of bacterial colonies was determined 48 hours later. In experiments involving approximately 120 animals, 52% of control mice had positive mesenteric lymph node cultures compared to 32% of GP-1-515-treated mice (p<0.05).

[12] = test system: E. Coli 0111:B4 lipopolysaccharide (LPS) endotoxic shock; assay: Endotoxic shock in pigs; type: in vivo, Yucatan miniature pigs
Experimental: Male or female Yucatan miniature pigs (20-27 kg) were pre-medicated with xylazine ([…] i.m.), ketamine (150 mg i.m.), and atropine (1 mg i.m.). The animals were intubated, administered 10 mg/kg of pentobarbital intravenously, and covered with a blanket to maintain normal body temperature. A pentobarbital infusion was maintained at 10 mg/kg/hr. The pigs were ventilated with 30% O2 using a Harvard large animal respirator at 7-10 breaths/rain in order to achieve a blood pH of approximately 7.45-7.50. A bolus of 4 mg of Pancuronium bromide was given to inhibit muscle contraction in response to the cautery and the animals were hydrated with a continuous infusion of saline at 60-80 cc/hr. A left thoracotomy was performed in the third intercostal space and the pulmonary artery, carotid artery, external jugular vein were cannulated with PE-190 tubing. A line was also placed in the left atrium and a catheter tipped micromanometer was inserted into the left ventricle via an apical stab wound. A transit-time flow probe was placed on the pulmonary artery. Pressure readings were obtained using a Statham pressure transducer connected to a Gould strip chart recorder. Heparinized arterial blood samples for blood gases were obtained through the carotid arterial catheter. Drugs and endotoxin were infused through the external jugular catheter.
After the animals had stabilized, a continuous infusion of GP-1-515 (0.3 μg/kg/m in) was started, followed 30 min later by a slow infusion of E. Coli 0111:B4 lipopolysaccharide (LPS) (Sigma Chemical Co., St. Louis, Mo.) over 30 min. The animals continued to receive GP-1-515 or vehicle for 4 additional hours and were ventilated with a fixed tidal volume and FiO2. […] Control animals developed severe hypoxemia, hypercapnia, and acidosis. […] 4/7pigs in the control group died (several of whom had frank pulmonary edema) compared to 1/7in the GP-1-515-treated group. Upon completion of the study, the surviving animals were euthanized with an intravenous bolus of pentobarbital.

adenosine kinase = molecular target: T1, adenosine kinase (Bos taurus, UniProt A0AAA9RZ79); assay: Adenosine kinase inhibition in intact cells (capillary endothelial cells from bovine heart); type: cell-based; conditions: 20 μM 2'-deoxycoformycin, 5 μM [3H]adenosine
T1 construct: endogenous in cells; host or cells: capillary endothelial cells from bovine heart
T1 sequence (A0AAA9RZ79 1-362): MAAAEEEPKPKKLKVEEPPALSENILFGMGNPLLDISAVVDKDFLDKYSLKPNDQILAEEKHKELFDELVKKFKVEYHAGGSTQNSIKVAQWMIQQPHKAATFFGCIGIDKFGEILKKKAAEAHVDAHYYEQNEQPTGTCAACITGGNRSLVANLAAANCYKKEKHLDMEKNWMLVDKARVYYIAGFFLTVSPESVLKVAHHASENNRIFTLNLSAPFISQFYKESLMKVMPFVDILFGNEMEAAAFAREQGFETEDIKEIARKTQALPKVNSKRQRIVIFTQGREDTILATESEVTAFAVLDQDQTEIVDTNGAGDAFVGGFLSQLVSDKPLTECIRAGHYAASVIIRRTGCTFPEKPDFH
Experimental: Inhibition of adenosine kinase in intact cells was determined from the amount of incorporation of radioisotope from adenosine into the adenylates (AMP, ADP and ATP) in the presence of adenosine deaminase inhibition. […] The media was then discarded and the cells were treated with 50 μl 0.4M perchloric acid, centrifuged and the supernalants neutralized with 100 μl alanine: freon (1:4).

[13] = test system: bacterial peritonitis and septic shock; assay: Cecal ligation and puncture, model of chronic sepsis; type: in vivo, male CD rats; conditions: 5 mg/kg orally, 2 hours before
Experimental: Cecal ligation and puncture (CLP) is a model of bacterial peritonitis and septic shock which mimics systemic infections in humans. In these experiments, male CD rats were fasted overnight and treated orally with either GP-1-515 (5 mg/kg) or vehicle by gavage. Two hours later, animals were anesthetized with ether and the anterior abdominal wall was shaved. A midline incision was made and the cecum was exteriorized and ligated with 3-0 silk suture near the ilial-cecal junction without causing bowel obstruction. The cecum was punctured twice on the anti-mesenteric side using a yellow tip disposable pipette tip (Fisher, Tustin, Calif.) and squeezed to ensure patency. The cecum was placed back in the abdominal cavity and the peritoneal wall was closed with 5-0 nylon sutures. The skin was closed with 9 mm stainless steel wound clips. The animals were resuscitated with a subcutaneous injection of 2 mL of sterile saline. No antibiotics were administered.

TNF-α = assay: Inhibition of TNF-alpha production in endotoxemic mice (ELISA); type: in vivo, Balb/C mice; conditions: 0.1 mg/kg i.v., one hour after LPS; p<0.01
Experimental: In these experiments, plasma TNF-α levels were measured in GP-1-515and placebo-treated mice (8 animals per group). Balb/C mice received an intravenous injection of E. coli LPS (900 ug/animal) (Sigma Chemical Co.) followed immediately by a second injection with 0.1 mg/kg of GP-1-515 or vehicle. Some animals were pretreated with an intraperitoneal injection of the adenosine receptor antagonist 8SPT. One hour later, blood was obtained from ether anesthetized animals by intracardiac puncture using a heparinized syringe. Blood samples were chilled on ice, centrifuged at 5000 rpm in a microcentrifuge for 5 minutes, and the plasma removed. TNF-α levels in the plasma were assayed by ELISA according to the instructions provided by the manufacturer (Endogen, Cambridge, Mass.).

Question: With `Nc1ncnc2c1ncn2[C@@H]1O[C@H](CO)[C@@H](O)[C@H]1O` [Adenosine, adenosine] as the molecule, how does the coronary steal (heart) read?
Answer: cause coronary steal

Question: What about the “inotropic, chronotropic and dromotropic effects” value (heart) of the same molecule?
Answer: negative inotropic, chronotropic and dromotropic effects

Question: And the “in vitro production of tumor necrosis factor alpha” value [1]?
Answer: inhibit in vitro production

Question: What does the source list for `Nc1ncnc2c1c(I)cn2[C@@H]1O[C@H](CO)[C@@H](O)[C@H]1O` [GP-1-202, 5-iodotubercidin, reference compound]?
Answer: effects in dog hearts, ischemia and reperfusion [2]: inconsistent effects; body temperature in mice [3]: hypothermia; flaccidity and locomotor activity in mice [3]: pronounced general flaccidity and much-reduced spontaneous locomotor activity; perfusate adenosine concentration, isolated rat hearts [4]: no increase in perfusate adenosine concentration; blood pressure and heart rate in anesthetized rats [5]: decrease blood pressure and heart rate; adenosine uptake, rat brain slices [6]: inhibited; adenosine uptake, guinea pig brain slices [7]: inhibited

Question: For `CC(=O)O[C@@H]1[C@H](OC(C)=O)[C@@H](CN)O[C@H]1n1nc(Br)c2c(N)ncnc21` [GP-1-792, 4-amino-1-(5-amino-5-deoxy-2,3-di-O-acetyl-1-β-D-ribofuranosyl)-3-bromopyrazolo[3,4-d]pyrimidine], which “oral bioavailability” value [8] is on record?
Answer: orally bioavailable

Question: What about the “suppression of carrageenan and histamine induced plasma leakage” value ([9]; FIG. 13 legend) of the same molecule?
Answer: suppression of carrageenan and histamine induced plasma leakage

Question: What about the inhibition at 5 mg/kg ([9]; carrageenan (1%), read-out: inhibition of carrageenan-induced plasma leakage) of the same molecule?
Answer: 47 ± 5%

Question: What about the inhibition at 5 mg/kg ([9]; histamine (10^-3 M), read-out: inhibition of histamine-induced plasma leakage) of the same molecule?
Answer: 51 ± 5%

Question: For `NC[C@H]1O[C@@H](n2nc(Br)c3c(N)ncnc32)[C@H](O)[C@@H]1O` [GP-1-515], which “mice surviving for 2 days” value (E. coli LPS endotoxemia [10]) is on record?
Answer: 50%

Question: And the “survival in endotoxic shock” value (E. coli LPS endotoxemia [11])?
Answer: dose-dependent increase in survival; also recorded: protecting against endotoxic shock

Question: And the “mice with positive mesenteric lymph node cultures” value (bacterial translocation; 0.1 mg/kg i.p. twice, 48 hours, control 52%, p<0.05)?
Answer: 32%

Question: And the “bacterial translocation” value (bacterial translocation; after a severe burn (or pancreatitis))?
Answer: significantly decreased; also recorded: significantly reduce bacterial translocation

Question: What about the “gas exchange, pulmonary function, blood gases” value ([12]; 0.3 μg/kg/min infusion) of the same molecule?
Answer: marked protection; also recorded: minimal changes in blood gases; also recorded: did not develop the hypoxemia, hypercapnia and acidosis exhibited in the control animals

Question: And the pigs died ([12]; control 4/7)?
Answer: 1/7

Question: And the blood pressure ([12]; versus control)?
Answer: Blood pressures were similar in the treated and control groups

Question: And the heart rate ([12]; versus control)?
Answer: the control group,, required a significantly higher heart rate; also recorded: lower heart rates than control animals

Question: What about the “other hemodynamic parameters, including pulmonary flow and pulmonary vascular resistance” value ([12]; versus untreated) of the same molecule?
Answer: either not different or modestly improved

Question: What about the IC50 (adenosine kinase) of the same molecule?
Answer: 9 nM

Question: And the “survival after cecal ligation and puncture” value [13]?
Answer: improved survival

Question: And the “plasma TNF-α levels” value (TNF-α)?
Answer: significantly decreased plasma TNF-α levels
